Reference: ChEMBL document CHEMBL1125233, “2,4-Diamino-5-benzylpyrimidines as antibacterial agents. 14. 2,3-Dihydro-1-(2,4-diamino-5-pyrimidyl)-1H-indenes as conformationally restricted analogues of trimethoprim” (J Med Chem, 1991)
pIC50: −log10 of the molar value.

What was measured:
Dihydrofolate reductase [1] = molecular target: T1, Dihydrofolate reductase (Rattus norvegicus, UniProt Q920D2); assay: Inhibitory activity against rat liver dihydrofolate reductase at 10e8 M; details: read-out: I50
T1 sequence (Q920D2 whole entry): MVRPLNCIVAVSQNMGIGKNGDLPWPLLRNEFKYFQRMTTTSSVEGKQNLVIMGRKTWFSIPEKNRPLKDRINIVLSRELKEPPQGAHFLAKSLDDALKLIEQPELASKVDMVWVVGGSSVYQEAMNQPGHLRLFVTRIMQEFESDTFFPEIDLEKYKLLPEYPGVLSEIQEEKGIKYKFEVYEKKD

Dihydrofolate reductase [2] = molecular target: Dihydrofolate reductase (Neisseria gonorrhoeae, UniProt P04174); assay: Inhibitory activity against Neisseria gonorrhoeae dihydrofolate reductase at 10e8 M; details: read-out: I50
Sequence of Dihydrofolate reductase (Neisseria gonorrhoeae, UniProt P04174) (P04174 whole entry): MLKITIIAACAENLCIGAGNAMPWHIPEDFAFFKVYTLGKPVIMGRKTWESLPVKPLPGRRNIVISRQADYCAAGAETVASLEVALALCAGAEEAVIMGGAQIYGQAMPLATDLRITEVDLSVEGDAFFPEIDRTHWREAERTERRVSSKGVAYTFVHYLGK

| pIC50 (Dihydrofolate reductase [1]) | pIC50 (Dihydrofolate reductase [2]) | SMILES |
| --- | --- | --- |
| 3.39 | 5.01 | COc1cc2c(cc1OC)C(c1cnc(N)nc1N)CC2 (stereo not drawn) |
| 4.15 | – | COc1ccc(Cc2cnc(N)nc2N)cc1OC [DIAVERIDINE] |
